Patent US20220089568A1 (Janssen Biotech, Inc., priority 2019, published 2022)

Columns and labels:
human DHODH = molecular target: T1, human DHODH (Homo sapiens, UniProt Q02127); test: DHODH Enzymatic Assay; type: biochemical; settings: purified human DHODH; DCIP absorbance, end-point mode
T1 construct: purchased Proteros PR-0044
Experimental: To detect DHODH enzyme activities, dichloroindophenol (DCIP) is added as the final electron acceptor in the assay. DCIP can accept electrons from the reduced coenzyme Q generated in the assay, or from dihydroorotate (DHO) via FMN by binding presumably to the ubiquinone pocket. […] The assay buffer contained […], pH 7.5, 150 mM NaCl, 0.5 mM EDTA, and 0.1% Triton X-100 in MilliQ water. Substrate consisting of 20 mM DHO, 5 mM CoQ6, and 1 mM DCIP in assay buffer, initiates the reaction. […] Absorbance measurements were obtained using the BMG Phera Star plate-reading spectrophotomer. Purified human DHODH was purchased from Proteros (cat. No. PR-0044). Chemicals were purchased from Sigma-Aldrich, Teknova, and Avanti Polar Lipids. Liquid handling was performed using Labcyte Echo and Formulatrix Tempest.

MOLM-13 cells = test: MOLM-13 Cellular Assay; type: cell-based; settings: Homo sapiens, 72 hours exposure, cell viability by CellTiter-Glo
Experimental: The day prior to assay set-up, cells were pelleted, resuspended in fresh media, counted, and cells were plated at 0.4×10^6 cell/mL in a T150 flask. […] Cells were exposed to different concentrations of test compounds at 37° C., 5% CO2 for 72 hours immediately after seeding.

T1 sequence (Q02127 whole entry): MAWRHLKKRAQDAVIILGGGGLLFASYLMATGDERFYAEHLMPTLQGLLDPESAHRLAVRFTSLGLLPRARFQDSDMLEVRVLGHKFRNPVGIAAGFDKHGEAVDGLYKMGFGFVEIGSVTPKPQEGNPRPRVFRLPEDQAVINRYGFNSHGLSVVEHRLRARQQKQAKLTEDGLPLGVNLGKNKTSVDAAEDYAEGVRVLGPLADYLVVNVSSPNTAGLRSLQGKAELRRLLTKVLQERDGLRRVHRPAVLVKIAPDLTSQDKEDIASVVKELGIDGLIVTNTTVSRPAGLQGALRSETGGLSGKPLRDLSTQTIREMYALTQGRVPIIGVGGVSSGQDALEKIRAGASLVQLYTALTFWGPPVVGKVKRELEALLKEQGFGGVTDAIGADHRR

| Structure (SMILES) | EC50 (human DHODH) | EC50 (MOLM-13 cells) |
| --- | --- | --- |
| CCn1c(CO)nn(-c2nc(O[C@@H](C)C(F)(F)F)c(C(=O)Nc3ccncc3Cl)cc2F)c1=O [Example 10, (S)-N-(3-Chloropyridin-4-yl)-6-(4-ethyl-3-(hydroxymethyl)-5-oxo-4,5-dihydro-1H-1,2,4-triazol-1-yl)-5-fluoro-2-((1,1,1-trifluoropropan-2-yl)oxy)nicotinamide] | 22.9 nM | 60.9 nM |
| CCn1c(CO)nn(-c2nc(O[C@@H](C)C(F)(F)F)c(C(=O)Nc3cc(C)ccc3F)cc2F)c1=O [Example 11, (S)-6-(4-Ethyl-3-(hydroxymethyl)-5-oxo-4,5-dihydro-1H-1,2,4-triazol-1-yl)-5-fluoro-N-(2-fluoro-5-methylphenyl)-2-((1,1,1-trifluoropropan-2-yl)oxy)nicotinamide] | < 1.69 nM | 0.5 nM |
| CCn1c(CO)nn(-c2nc(O[C@@H](C)C(F)(F)F)c(C(=O)Nc3cnsc3)cc2F)c1=O [Example 12, (S)-6-(4-Ethyl-3-(hydroxymethyl)-5-oxo-4,5-dihydro-1H-1,2,4-triazol-1-yl)-5-fluoro-N-(isothiazol-4-yl)-2-((1,1,1-trifluoropropan-2-yl)oxy)nicotinamide] | 324 nM | 672 nM |
| CCn1c(CO)nn(-c2nc(O[C@@H](C)C(F)(F)F)c(C(=O)Nc3c(C)ccnc3C(F)F)cc2F)c1=O [Example 13, (S)-N-(2-(Difluoromethyl)-4-methylpyridin-3-yl)-6-(4-ethyl-3-(hydroxymethyl)-5-oxo-4,5-dihydro-1H-1,2,4-triazol-1-yl)-5-fluoro-2-((1,1,1-trifluoropropan-2-yl)oxy)nicotinamide] | 2.2 nM | 3.3 nM |
| CCn1c(COC)nn(-c2nc(O[C@@H](C)C(F)(F)F)c(C(=O)Nc3c(F)cccc3Cl)cc2F)c1=O [Example 14, (S)-N-(2-Chloro-6-fluorophenyl)-6-(4-ethyl-3-(methoxymethyl)-5-oxo-4,5-dihydro-1H-1,2,4-triazol-1-yl)-5-fluoro-2-((1,1,1-trifluoropropan-2-yl)oxy)nicotinamide] | < 1.69 nM | 0.2 nM |
| CCn1c(CO)nn(-c2nc(O[C@@H](C)C(F)(F)F)c(C(=O)Nc3cnsc3Br)cc2F)c1=O [Example 15, (S)-N-(5-Bromoisothiazol-4-yl)-6-(4-ethyl-3-(hydroxymethyl)-5-oxo-4,5-dihydro-1H-1,2,4-triazol-1-yl)-5-fluoro-2-((1,1,1-trifluoropropan-2-yl)oxy)nicotinamide] | 3.1 nM | 2.5 nM |
| CCn1c(CO)nn(-c2nc(O[C@@H](C)C(F)(F)F)c(C(=O)Nc3ccnnc3Cl)cc2F)c1=O [Example 16, (S)-N-(3-Chloropyridazin-4-yl)-6-(4-ethyl-3-(hydroxymethyl)-5-oxo-4,5-dihydro-1H-1,2,4-triazol-1-yl)-5-fluoro-2-((1,1,1-trifluoropropan-2-yl)oxy)nicotinamide] | 734 nM | > 1000 nM |
| CCn1c(CO)nn(-c2nc(O[C@@H](C)C(F)(F)F)c(C(=O)Nc3csnc3C)cc2F)c1=O [Example 17, (S)-6-(4-Ethyl-3-(hydroxymethyl)-5-oxo-4,5-dihydro-1H-1,2,4-triazol-1-yl)-5-fluoro-N-(3-methylisothiazol-4-yl)-2-((1,1,1-trifluoropropan-2-yl)oxy)nicotinamide] | 30.9 nM | 87.9 nM |
| CCn1c(CO)nn(-c2nc(O[C@@H](C)C(F)(F)F)c(C(=O)Nc3c(C)ccnc3C)cc2F)c1=O [Example 18, (S)-N-(2,4-Dimethylpyridin-3-yl)-6-(4-ethyl-3-(hydroxymethyl)-5-oxo-4,5-dihydro-1H-1,2,4-triazol-1-yl)-5-fluoro-2-((1,1,1-trifluoropropan-2-yl)oxy)nicotinamide] | 3.7 nM | 12.8 nM |
| CCn1c(CO)nn(-c2nc(O[C@@H](C)C(F)(F)F)c(C(=O)Nc3nccnc3Cl)cc2F)c1=O [Example 19, (S)-N-(3-Chloropyrazin-2-yl)-6-(4-ethyl-3-(hydroxymethyl)-5-oxo-4,5-dihydro-1H-1,2,4-triazol-1-yl)-5-fluoro-2-((1,1,1-trifluoropropan-2-yl)oxy)nicotinamide] | 40.4 nM | 51.3 nM |
| CCn1c(CO)nn(-c2nc(O[C@@H](C)C(F)(F)F)c(C(=O)Nc3cc[nH]c(=O)c3Cl)cc2F)c1=O [Example 20, (S)-N-(3-Chloro-2-oxo-1,2-dihydropyridin-4-yl)-6-(4-ethyl-3-(hydroxymethyl)-5-oxo-4,5-dihydro-1H-1,2,4-triazol-1-yl)-5-fluoro-2-((1,1,1-trifluoropropan-2-yl)oxy)nicotinamide] | 4.3 nM | 108 nM |
| CCn1c(CO)nn(-c2nc(O[C@@H](C)C(F)(F)F)c(C(=O)Nc3nc(OC)ccc3Cl)cc2F)c1=O [Example 21, (S)-N-(3-chloro-6-methoxypyridin-2-yl)-6-(4-ethyl-3-(hydroxymethyl)-5-oxo-4,5-dihydro-1H-1,2,4-triazol-1-yl)-5-fluoro-2-((1,1,1-trifluoropropan-2-yl)oxy)nicotinamide] | 1.2 nM | 1.8 nM |
| CCn1c(CO)nn(-c2nc(O[C@@H](C)C(F)(F)F)c(C(=O)Nc3c(Cl)c[nH]c(=O)c3Cl)cc2F)c1=O [Example 22, (S)-N-(3,5-Dichloro-2-oxo-1H-pyridin-4-yl)-6-[4-ethyl-3-(hydroxymethyl)-5-oxo-1,2,4-triazol-1-yl]-5-fluoro-2-[(1S)-2,2,2-trifluoro-1-methyl-ethoxy]pyridine-3-carboxamide] | 1.5 nM | 445 nM |
| CCn1c(CO)nn(-c2nc(O[C@@H](C)C(F)(F)F)c(C(=O)Nc3[nH]c(=O)ccc3Cl)cc2F)c1=O [Example 23, (S)-N-(3-chloro-6-oxo-1,6-dihydropyridin-2-yl)-6-(4-ethyl-3-(hydroxymethyl)-5-oxo-4,5-dihydro-1H-1,2,4-triazol-1-yl)-5-fluoro-2-((1,1,1-trifluoropropan-2-yl)oxy)nicotinamide] | 13.6 nM | 90 nM |
| CCn1c(CO)nn(-c2nc(O[C@@H](C)C(F)(F)F)c(C(=O)Nc3ccnc(OC)c3Cl)cc2F)c1=O [Example 24, (S)-N-(3-Chloro-2-methoxypyridin-4-yl)-6-(4-ethyl-3-(hydroxymethyl)-5-oxo-4,5-dihydro-1H-1,2,4-triazol-1-yl)-5-fluoro-2-((1,1,1-trifluoropropan-2-yl)oxy)nicotinamide] | 10.8 nM | 10.1 nM |
| CCn1c(CO)nn(-c2nc(O[C@@H](C)C(F)(F)F)c(C(=O)Nc3c(C)n[nH]c3Cl)cc2F)c1=O [Example 25, (S)-N-(5-Chloro-3-methyl-1H-pyrazol-4-yl)-6-(4-ethyl-3-(hydroxymethyl)-5-oxo-4,5-dihydro-1H-1,2,4-triazol-1-yl)-5-fluoro-2-((1,1,1-trifluoropropan-2-yl)oxy)nicotinamide] | 0.84 nM | 3 nM |
| CCn1c(CO)nn(-c2nc(O[C@@H](C)C(F)(F)F)c(C(=O)Nc3snc(C)c3Cl)cc2F)c1=O [Example 26, (S)-N-(4-Chloro-3-methylisothiazol-5-yl)-6-(4-ethyl-3-(hydroxymethyl)-5-oxo-4,5-dihydro-1H-1,2,4-triazol-1-yl)-5-fluoro-2-((1,1,1-trifluoropropan-2-yl)oxy)nicotinamide] | 108 nM | > 100 nM |
| CCn1c(CO)nn(-c2nc(O[C@@H](C)C(F)(F)F)c(C(=O)Nc3cnccc3Cl)cc2F)c1=O [Example 27, (S)-N-(4-Chloropyridin-3-yl)-6-(4-ethyl-3-(hydroxymethyl)-5-oxo-4,5-dihydro-1H-1,2,4-triazol-1-yl)-5-fluoro-2-((1,1,1-trifluoropropan-2-yl)oxy)nicotinamide] | 4.7 nM | 7.7 nM |
| CCn1c(CO)nn(-c2nc(O[C@@H](C)C(F)(F)F)c(C(=O)Nc3c(F)cncc3Cl)cc2F)c1=O [Example 28, (S)-N-(3-Chloro-5-fluoropyridin-4-yl)-6-(4-ethyl-3-(hydroxymethyl)-5-oxo-4,5-dihydro-1H-1,2,4-triazol-1-yl)-5-fluoro-2-((1,1,1-trifluoropropan-2-yl)oxy)nicotinamide] | 2.3 nM | 4.7 nM |
| CCn1c(CO)nn(-c2nc(O[C@@H](C)C(F)(F)F)c(C(=O)Nc3c(F)cncc3C#N)cc2F)c1=O [Example 29, (S)-N-(3-Cyano-5-fluoropyridin-4-yl)-6-(4-ethyl-3-(hydroxymethyl)-5-oxo-4,5-dihydro-1H-1,2,4-triazol-1-yl)-5-fluoro-2-((1,1,1-trifluoropropan-2-yl)oxy)nicotinamide] | 2.5 nM | 4.4 nM |
| CCn1c(CO)nn(-c2nc(O[C@@H](C)C(F)(F)F)c(C(=O)Nc3c(F)cnc(OC)c3Cl)cc2F)c1=O [Example 30, (S)-N-(3-Chloro-5-fluoro-2-methoxypyridin-4-yl)-6-(4-ethyl-3-(hydroxymethyl)-5-oxo-4,5-dihydro-1H-1,2,4-triazol-1-yl)-5-fluoro-2-((1,1,1-trifluoropropan-2-yl)oxy)nicotinamide] | 1.2 nM | 1.3 nM |
| CCn1c(CO)nn(-c2nc(O[C@@H](C)C(F)(F)F)c(C(=O)Nc3snc(C)c3Br)cc2F)c1=O [Example 31, (S)-N-(4-Bromo-3-methylisothiazol-5-yl)-6-(4-ethyl-3-(hydroxymethyl)-5-oxo-4,5-dihydro-1H-1,2,4-triazol-1-yl)-5-fluoro-2-((1,1,1-trifluoropropan-2-yl)oxy)nicotinamide] | 233 nM | > 100 nM |
